Experiment [1] deals with T1, D(4) dopamine receptor (Homo sapiens, UniProt P21917).
T1 sequence (P21917 whole entry): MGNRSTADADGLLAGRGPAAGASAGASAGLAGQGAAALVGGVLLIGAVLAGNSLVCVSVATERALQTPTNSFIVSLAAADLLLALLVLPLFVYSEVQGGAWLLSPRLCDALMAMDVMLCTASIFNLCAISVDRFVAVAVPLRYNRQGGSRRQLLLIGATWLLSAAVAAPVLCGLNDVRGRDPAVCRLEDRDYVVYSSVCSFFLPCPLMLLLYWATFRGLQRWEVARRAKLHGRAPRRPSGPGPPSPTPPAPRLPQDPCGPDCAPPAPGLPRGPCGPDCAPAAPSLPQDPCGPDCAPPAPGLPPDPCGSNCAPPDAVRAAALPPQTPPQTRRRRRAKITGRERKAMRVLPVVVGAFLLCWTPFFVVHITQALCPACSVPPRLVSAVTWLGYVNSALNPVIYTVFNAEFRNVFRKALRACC
The experiment is described as follows: Agonist activity was calculated in calcium flux assay using HEK293 cells co-transfected with human Dopamine receptor D4.4 and Galphaqo5. In kind it is functional, cell-based.

The target in experiment [2] is T1, D(4) dopamine receptor. In words: In vitro ability to inhibit [3H]spiperone binding to human Dopamine receptor D4.4.
Experiment [3] deals with T1, D(4) dopamine receptor. In words: In vitro ability to inhibit [3H]6b binding to human Dopamine receptor D4.4.
Experiment [4] addresses T2, D(4) dopamine receptor (Homo sapiens) (UniProt P21917).
T2 sequence (whole entry): T1 sequence (P21917 whole entry)
The experiment is described as follows: Efficacy in calcium flux assay using HEK293 cells co-transfected with human Dopamine receptor D4.4 and G-alpha-qo5 relative to 10 uM dopamine. The format is functional, cell-based. For orientation: Calcium flux is commonly read through the fluorescence of an indicator in the cells.

Experiment [5] concerns the target T1, D(4) dopamine receptor. In words: In vitro ability to inhibit [3H]spiperone binding to human Dopamine receptor D4.4 allele.

Molecules are shown by their SMILES.

The text below walks through data of ChEMBL document CHEMBL1137895, “Synthesis and activity of 2-[4-(4-[3H]-2-cyanophenyl)piperazinyl]-N-(2,4,6-[3H]3-3-methylphenyl)acetamide: a selective dopamine D4 receptor agonist and radioligand” (Bioorg Med Chem Lett, 2004).

Consider `Cc1cc(NC(=O)CN2CCN(c3ccc(Br)cc3C#N)CC2)ccc1Br`, for which, at D(4) dopamine receptor [1], the EC50 was above 10000 nM. The values for the Ki at D(4) dopamine receptor [2] and on D(4) dopamine receptor [3] were 54.2 nM and 14 nM, respectively.

For `COc1ccccc1N1CCN(CC(=O)Nc2cccc(C)c2)CC1`, the EC50 on D(4) dopamine receptor [1] is 26.8 nM. In experiment [4], the E was 60%. Also, the Ki on D(4) dopamine receptor [3] came out at 1.8 nM; on D(4) dopamine receptor [5] it was 0.7 nM.

As for `COc1cccc(N2CCN(CC(=O)Nc3cccc(C)c3)CC2)c1`, the EC50 at D(4) dopamine receptor [1] is above 10000 nM. The Ki amounted to 46 nM on D(4) dopamine receptor [2] and 39.1 nM on D(4) dopamine receptor [3].

`COc1ccc(N2CCN(CC(=O)Nc3cccc(C)c3)CC2)cc1`: the EC50 at D(4) dopamine receptor [1] was above 10000 nM. Besides, the Ki is 101 nM on D(4) dopamine receptor [2] and 88.9 nM at D(4) dopamine receptor [3].

As for `Cc1cccc(NC(=O)CN2CCN(c3ccc(F)cc3)CC2)c1`, the EC50 on D(4) dopamine receptor [1] was above 10000 nM. Besides, the Ki at D(4) dopamine receptor [2] stood at 61.9 nM; at D(4) dopamine receptor [3], 90.7 nM.

The term EC50 denotes the concentration needed to bring the measured effect to its halfway point. The term Ki denotes the equilibrium dissociation constant of an inhibitor or competing ligand from its target. A higher Ki goes with lower affinity.
